We go through 4 compounds from US20080167375A1, “TREATMENT OF CUTANEOUS NEUROGENIC INFLAMMATION” (Astion Pharma A/S, priority 2006, published 2008).

The test system of series [1] is skin. The series can be described thus: Skin tolerability of dermatological compositions. As to conditions: higher doses. An excerpt:
Therefore, in current interesting embodiments of the invention, the dermatological composition comprises for reasons of safety and convenience a maximal dose of GMCY or an analogue thereof in an amount of 5% of GMCY or an analogue thereof by weight of the dermatological composition, such as in a maximum doses of 4.5%, 4%, 3.5%, 3%, 2.5%, 2%, 1.5%, 1.25 1%, 0.8, 0.6 and 0.5% of GMCY or an analogue thereof by weight of the dermatological composition.

The test system of series [2] is TNF-α release in LPS-activated human peripheral blood mononuclear cells (PBMC). Put plainly: LPS-induced TNF-α release from human PBMC. The format is cell-based. As to conditions: for TNF-α: LPS-stimulated PBMC. An excerpt: (§1) The ability of GMCY to inhibit release of pro-inflammatory cytokines (TNF-α and IL-1) in LPS-activated human peripheral blood mononuclear cells (PBMC) has been investigated.

For series [3], the target named is T1, Fatty acid amid hydrolase (FAAH) (Rattus norvegicus, UniProt P97612).
T1 construct: source is rat brain; tissue MDS Pharma Services; host or cells: rat brain
T1 sequence (P97612 1-579): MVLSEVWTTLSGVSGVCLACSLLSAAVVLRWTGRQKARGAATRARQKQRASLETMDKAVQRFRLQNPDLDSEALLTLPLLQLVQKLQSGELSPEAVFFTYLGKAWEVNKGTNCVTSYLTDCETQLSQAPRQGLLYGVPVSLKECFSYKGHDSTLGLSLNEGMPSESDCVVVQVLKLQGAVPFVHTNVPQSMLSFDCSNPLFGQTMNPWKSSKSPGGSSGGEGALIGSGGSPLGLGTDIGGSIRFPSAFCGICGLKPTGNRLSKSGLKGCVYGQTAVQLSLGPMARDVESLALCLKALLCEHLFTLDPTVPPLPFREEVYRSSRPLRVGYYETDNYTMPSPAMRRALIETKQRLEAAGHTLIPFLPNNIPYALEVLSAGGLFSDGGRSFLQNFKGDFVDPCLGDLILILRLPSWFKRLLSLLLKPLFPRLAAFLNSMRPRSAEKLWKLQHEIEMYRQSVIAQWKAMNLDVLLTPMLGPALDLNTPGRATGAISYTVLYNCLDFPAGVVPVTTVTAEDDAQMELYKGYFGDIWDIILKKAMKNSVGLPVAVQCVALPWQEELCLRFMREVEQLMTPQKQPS
Put plainly: FAAH in vitro enzyme assay (MDS Pharma Services). The format is biochemical. As to conditions: rat brain source; substrate Anandamide+[3H]Anandamide. The procedure:
The assay is conducted using the following test conditions; source is rat brain, substrate is Anandamide+[3H]Anandamide, the reation is[3H]Anandamide→[3H]Ethanolamine+Arachidonic acid and the quantitation is performed on [3H]Ethanolamine using a test concentration usually of about 10 μM.

For series [4], the target named is T2, vanilloid receptors (Rattus norvegicus, UniProt O35433).
T2 construct: The tissue used in this assay was rat vas deferens, field stimulated; tissue MDS Pharma Services; host or cells: rat vas deferens
T2 sequence (O35433 whole entry): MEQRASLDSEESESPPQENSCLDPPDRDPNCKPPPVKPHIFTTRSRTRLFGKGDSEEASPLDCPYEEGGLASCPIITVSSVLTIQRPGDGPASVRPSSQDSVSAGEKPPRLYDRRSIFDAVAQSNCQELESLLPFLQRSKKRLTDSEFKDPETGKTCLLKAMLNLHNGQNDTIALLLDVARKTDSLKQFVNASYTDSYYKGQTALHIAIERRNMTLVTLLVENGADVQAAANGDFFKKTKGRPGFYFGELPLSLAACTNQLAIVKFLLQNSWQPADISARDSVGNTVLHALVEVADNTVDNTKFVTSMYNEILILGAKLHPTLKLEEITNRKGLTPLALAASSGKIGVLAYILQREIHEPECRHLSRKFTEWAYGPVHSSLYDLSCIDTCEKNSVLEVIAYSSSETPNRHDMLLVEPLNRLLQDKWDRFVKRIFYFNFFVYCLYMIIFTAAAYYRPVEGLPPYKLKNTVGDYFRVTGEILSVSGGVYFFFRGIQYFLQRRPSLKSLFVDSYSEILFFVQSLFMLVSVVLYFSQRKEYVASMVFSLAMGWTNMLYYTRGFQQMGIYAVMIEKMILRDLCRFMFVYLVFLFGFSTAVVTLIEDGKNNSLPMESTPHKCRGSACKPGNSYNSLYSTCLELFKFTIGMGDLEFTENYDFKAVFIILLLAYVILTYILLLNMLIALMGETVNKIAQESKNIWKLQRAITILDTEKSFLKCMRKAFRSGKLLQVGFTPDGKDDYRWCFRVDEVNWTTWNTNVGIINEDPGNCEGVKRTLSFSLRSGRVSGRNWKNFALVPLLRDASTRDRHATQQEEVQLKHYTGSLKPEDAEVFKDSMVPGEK
Put plainly: In vitro radioligand binding assay for vanilloid receptors (MDS Pharma Services). The note with it: rat vas deferens, field stimulated. From the text:
Literature reference to this assay is Wardle, K A et al. J PharmPharmacol. 48:285, 1996.

Series [5] has as its system acute inflammation. As to conditions: Example 111 of WO 2004/000333; cited from earlier work.
Series [6] deals with T3, Protein tyrosine kinase enzyme Syk (Homo sapiens, UniProt P43405).
T3 construct: MDS Pharma assay no 174200
Put plainly: Protein tyrosine kinase Syk inhibition (MDS Pharma, assay no 174200). The format is biochemical.

The test system of series [7] is IL-6 release in LPS-activated human peripheral blood mononuclear cells (PBMC). Put plainly: LPS-induced IL-6 release from human PBMC. Format: cell-based. As to conditions: physiologically relevant concentrations.
For series [8], the system named is IL-1β release in LPS-activated human peripheral blood mononuclear cells (PBMC). The series can be described thus: LPS-induced IL-1β release from human PBMC. Format: cell-based. Also noted: IL-1β: unit not given here. As to conditions: for IL-1β: LPS-stimulated PBMC.
Excerpt: as §1

Series [9] has as its target T4, human PPARα (Homo sapiens, UniProt Q07869).
T4 construct: host or cells: HEK 293-T
T4 sequence (Q07869 239-466 limits assumed): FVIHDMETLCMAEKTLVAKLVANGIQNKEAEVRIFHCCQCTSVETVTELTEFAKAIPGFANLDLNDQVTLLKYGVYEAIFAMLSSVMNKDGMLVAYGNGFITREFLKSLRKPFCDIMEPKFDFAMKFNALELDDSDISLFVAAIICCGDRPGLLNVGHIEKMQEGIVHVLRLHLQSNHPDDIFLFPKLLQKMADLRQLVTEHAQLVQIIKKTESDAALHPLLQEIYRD
Put plainly: PPARα agonism, Gal4-luciferase transactivation assay in HEK 293-T. Format: cell-based. The procedure: Effect of GMCY and glyceryl fatty acid esters of higher acid chain length on PPARα agonism.
Agonism of PPARα can be tested by commercially available assays such as by Indigo Biosciences). The test substance is dissolved in DMSO and serial dilutions in DMSO were prepared. A plasmid was formed by fusing a ligand-binding domain of human PPARα, to a DAN-binding domain of the yest transcription factor Gal4 under the control of the SV40 promoter. This plasmid also encoded the UAS-firefly luciferase reporter under the control of the Gal4 DNA response element. Cell-cultures and transactivation assays were HEK 293-T fibroblast (ATCC Manassas, Va.) which were cultured in high-glucose Dulbecco's Minimal Essential Medium (DMEM) supplemented with 10% fetal bovine serum (FBS, Sigma), 0.2 mg/ml streptomycin and 200 U/ml penicillin (Gibco Grand Island, N.Y.). Cells were transfected with plasmid DNA using Lipofectamine reagent (In Vitrogen, Carlsbad, Calif.) using the manufacturers recommended procedures. Sixteen hours after treatment, the cells were lysed with passive lysis buffer (Promega, Madison, Wis.) and a Tecan GeniousPro (Research Triangle Park, N.C.). The fold induction of normalised luciferase activity was calculated relative to DMSO, DMSO-treated cells.

In series [10] the test system is capsaicin-induced neurogenic inflammation (ear oedema). Put plainly: Capsaicin-induced ear oedema (neurogenic inflammation) model in mice. Format: in vivo, NMRI mice. The note with it: for % relative ear oedema (2. app): co-administered with capsaicin 250 μg/ear, 15 min after second capsaicin application; for % inhibition of ear oedema: after second capsaicin application, vs vehicle. From the text:
Effect on capsaicin-induced neurogenic inflammation in mice and binding to the TRP vanillioid receptor.
The mechanism of cutaneous neurogenic inflammation is connected with the release of neuropeptides from sensory nerve endings. The neuropeptide substance P is believed to play a major role in inducing an inflammatory response by affecting different inflammatory cells.

In series [11] the target is T1, Fatty acid amid hydrolase (FAAH). As to conditions: reference compound of the assay; cited from earlier work.
Where [12] appears, read: physiologically relevant concentrations.

Where two headings read alike, the source gives them in different places.

On to `CCCCCCCC(=O)OCC(O)CO` (racemic) [GMCY, 1-glyceryl monocaprylate], for which the “skin burning / irritation” value in [1] is listed as “causes burning or weak irritation in higher doses”. Moreover, the TNF-α in series [2] (1 μM) is reported as 230.2; in series [2] (10 μM), 105; in series [2] (100 μM), 73.7; in series [2] (1000 μM), 38.5; in series [2], 6.9. The “inhibition of LPS induced release of TNF-α” value in series [2] (setting [12]) is “dose dependently inhibit”. For the same compound, the IC50 in series [3] was found to be 53 µM; in series [6] it was 61 µM. For the same compound, in series [4], the “binding to the vanilloid receptors” value is recorded as “does not bind”. Moreover, in series [5], the “effect on acute inflammation” value is recorded as “any effect could not be proven statistically”. For the same compound, the “inhibition of LPS induced release of IL-6” value in series [7] is recorded as “dose dependently inhibit”. The IL-1β was determined as 459.2 in series [8] (1 μM); 320.9 in series [8] (10 μM); 238.6 in [8] (100 μM); 124.5 in series [8] (1000 μM); 8.2 in series [8] (10000 μM). Moreover, the “inhibition of LPS induced release of IL-1β” value in [8] (setting [12]) is listed as “dose dependently inhibit”. Further, the PPARα agonism result in [9] is given as “did not act as an agonist”. Further, the figures for the “% relative ear oedema (2. app)” value in series [10] (100 μg/ear topical), in [10] (450 μg/ear topical) and in [10] (2000 μg/ear topical) were 15.8%, 15.3% and 15.0%, respectively. The “% inhibition of ear oedema” value in series [10] (100 μg/ear) was determined as 32.6%; in series [10] (450 μg/ear), 34.4%; in [10] (2000 μg/ear) it was 36.0%. Further, the “reduction of inflammation in comparison to the vehicle control” value in [10] (after repeated application of capsaicin, treated groups overall) is given as “about 35%”.
With `CCCCCCCCCC(=O)OCC(O)CO` (centres unmarked) [1-glyceryl monocaprate, reference compound], the “inhibitory effect on neurogenic inflammation (ear oedema vs vehicle control)” value in [10] (all treated groups (2000, 450, 100 μg/ear)) was “no inhibitory effect”.
In turn, `C[C@@H]1C[C@H]2[C@@H]3CCC4=CC(=O)C=C[C@]4(C)[C@@]3(F)[C@@H](O)C[C@]2(C)[C@@]1(O)C(=O)CO` [Dexamethasone, reference compound] showed a TNF-α in series [2] (Dexamethasone control, concentration not given) of 87.
`CCCCCCCC/C=C\CCCCCCCC(=O)C(F)(F)F` [Oleyl Trifluromethyl Ketone]: the IC50 in [11] was 0.029 µM.

By IC50 is commonly meant the concentration at which inhibition is half-maximal.
